Source: the supplement of paper PMC10307832

Legend:
Experiment in all cases: relative viability (nuclei count vs DMSO), 5 days (fraction); higher = more cells survive
4EGI-1 + Alpelisib = compound: O=C(O)C(Cc1ccccc1[N+](=O)[O-])=NNc1nc(-c2ccc(Cl)c(Cl)c2)cs1 (mixture of isomers) [4EGI-1] + Cc1nc(NC(=O)N2CCC[C@H]2C(N)=O)sc1-c1ccnc(C(C)(C)C(F)(F)F)c1 [Alpelisib] (partner 2 µM)
Procedure, shortened: (§1)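 Cells from lung cancer lines were seeded into 1536-well plates and, one day later, dosed by pin tool. Treatments were either a single drug or a fixed dose of an anchor drug with five library-drug doses (not always all listed) in √10 steps. After 5 days, nuclei were stained in a one-step fixation (final 0.05% Triton X-100, 1% formaldehyde, 1 ug/ml Hoechst) and counted on 4× images, and relative viability is the treated-to-vehicle nuclei ratio, as the median of duplicate plates.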

4EGI-1 + Olaparib = compound: O=C(O)C(Cc1ccccc1[N+](=O)[O-])=NNc1nc(-c2ccc(Cl)c(Cl)c2)cs1 (mixture of isomers) [4EGI-1] + O=C(c1cc(Cc2n[nH]c(=O)c3ccccc23)ccc1F)N1CCN(C(=O)C2CC2)CC1 [Olaparib] (partner 8 µM)
Procedure, shortened: as §1

4EGI-1 + Tozasertib = compound: O=C(O)C(Cc1ccccc1[N+](=O)[O-])=NNc1nc(-c2ccc(Cl)c(Cl)c2)cs1 (mixture of isomers) [4EGI-1] + Cc1cc(Nc2cc(N3CCN(C)CC3)nc(Sc3ccc(NC(=O)C4CC4)cc3)n2)n[nH]1 [Tozasertib] (partner 0.1 µM)
Procedure, shortened: as §1

XMD8-85 + Lapatinib = compound: CN1CCN(CC1)C2=CC(=C(C=C2)NC3=NC=C4C(=N3)N(C5=CC=CC=C5C(=O)N4C)C)OC [XMD8-85] + CS(=O)(=O)CCNCc1ccc(-c2ccc3ncnc(Nc4ccc(OCc5cccc(F)c5)c(Cl)c4)c3c2)o1 [Lapatinib] (partner 2 µM)
Procedure, shortened: as §1

Cell Line	relative viability (4EGI-1 + Alpelisib; first compound 0.5 µM)	relative viability (4EGI-1 + Alpelisib; first compound 1.581 µM)	relative viability (4EGI-1 + Alpelisib; first compound 5 µM)	relative viability (4EGI-1 + Alpelisib; first compound 15.81 µM)	relative viability (4EGI-1 + Alpelisib; first compound 50 µM)	relative viability (4EGI-1 + Olaparib; first compound 0.5 µM)	relative viability (4EGI-1 + Olaparib; first compound 1.581 µM)	relative viability (4EGI-1 + Olaparib; first compound 5 µM)	relative viability (4EGI-1 + Olaparib; first compound 15.81 µM)	relative viability (4EGI-1 + Olaparib; first compound 50 µM)	relative viability (4EGI-1 + Tozasertib; first compound 0.5 µM)	relative viability (4EGI-1 + Tozasertib; first compound 1.581 µM)	relative viability (4EGI-1 + Tozasertib; first compound 5 µM)	relative viability (4EGI-1 + Tozasertib; first compound 15.81 µM)	relative viability (4EGI-1 + Tozasertib; first compound 50 µM)	relative viability (XMD8-85 + Lapatinib; first compound 0.08 µM)	relative viability (XMD8-85 + Lapatinib; first compound 0.253 µM)	relative viability (XMD8-85 + Lapatinib; first compound 0.8 µM)	relative viability (XMD8-85 + Lapatinib; first compound 2.53 µM)	relative viability (XMD8-85 + Lapatinib; first compound 8 µM)
NCI-H1915	1.09	0.808	0.982	1.07	0.695	0.261	0.207	0.275	0.207	0.152	0.448	0.327	0.421	0.326	0.201	0.954	1.01	1.09	0.986	0.921
SW 1573	1.1	0.644	0.879	0.785	0.663	0.529	0.317	0.672	0.213	0.113	0.176	0.188	0.149	0.172	0.102	1.1	1.21	1.02	1.09	0.885
NCI-H661	0.82	0.446	1.26	0.535	0.229	0.765	0.637	0.584	0.454	0.336	0.336	0.34	0.34	0.355	0.283	0.486	0.485	0.404	–	0.473
CAL-12T	1.24	–	1.28	1.25	1.15	0.829	0.484	0.754	0.751	0.624	0.354	0.264	0.315	0.315	0.21	0.626	–	0.679	0.678	0.604
A-427	1.04	0.968	1.07	0.991	0.759	0.777	–	0.766	0.643	0.276	0.192	0.195	0.189	0.205	0.0979	1.05	0.994	1.09	1.1	0.937
LCLC-97TM1	0.213	–	0.239	0.236	0.211	0.355	–	0.278	0.328	0.0574	0.231	0.184	0.215	0.219	0.102	0.703	0.931	0.859	1.02	1.15
LK-2	1.22	–	1.12	1.21	0.897	0.86	–	0.884	0.654	0.404	0.193	–	0.199	0.151	0.151	0.691	0.994	0.771	0.552	0.653
